Experimental data from article PMC11172662, “Anticancer Effect of Hemin through ANO1 Inhibition in Human Prostate Cancer Cells” (International Journal of Molecular Sciences, 2024).

Columns and labels:
ANO2 = molecular target: T1, ANO2 (Homo sapiens, UniProt Q9NQ90); assay: YFP fluorescence quenching assay in FRT cells expressing human ANO2; format: cell-based
T1 sequence (Q9NQ90 1-998): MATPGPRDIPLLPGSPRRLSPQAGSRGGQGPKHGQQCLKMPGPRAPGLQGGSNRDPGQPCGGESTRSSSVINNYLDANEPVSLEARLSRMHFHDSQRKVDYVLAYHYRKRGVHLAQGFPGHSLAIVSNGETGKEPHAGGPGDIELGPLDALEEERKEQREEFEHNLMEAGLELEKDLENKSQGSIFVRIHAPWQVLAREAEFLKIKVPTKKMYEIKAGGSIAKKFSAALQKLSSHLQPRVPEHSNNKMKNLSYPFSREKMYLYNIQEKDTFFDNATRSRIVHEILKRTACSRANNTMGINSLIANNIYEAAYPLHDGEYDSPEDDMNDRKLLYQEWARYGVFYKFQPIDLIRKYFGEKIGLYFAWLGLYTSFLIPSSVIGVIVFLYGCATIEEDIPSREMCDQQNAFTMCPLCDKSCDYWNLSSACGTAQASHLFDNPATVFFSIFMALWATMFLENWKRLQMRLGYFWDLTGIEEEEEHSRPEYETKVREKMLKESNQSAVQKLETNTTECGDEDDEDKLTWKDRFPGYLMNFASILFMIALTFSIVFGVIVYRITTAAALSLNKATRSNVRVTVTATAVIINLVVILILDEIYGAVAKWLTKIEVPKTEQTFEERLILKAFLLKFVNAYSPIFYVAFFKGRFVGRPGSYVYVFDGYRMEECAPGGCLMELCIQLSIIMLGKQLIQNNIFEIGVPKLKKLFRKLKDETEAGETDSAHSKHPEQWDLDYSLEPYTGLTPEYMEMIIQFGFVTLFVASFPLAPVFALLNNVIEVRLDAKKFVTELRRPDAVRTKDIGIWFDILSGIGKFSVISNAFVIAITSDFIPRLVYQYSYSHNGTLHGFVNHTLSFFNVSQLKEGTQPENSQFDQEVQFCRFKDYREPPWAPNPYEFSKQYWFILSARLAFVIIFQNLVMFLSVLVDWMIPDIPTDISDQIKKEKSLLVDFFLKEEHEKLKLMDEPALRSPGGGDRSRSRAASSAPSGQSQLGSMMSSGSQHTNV

[1] = molecular target: T2, ANO1 (anoctamin1, TMEM16A) (Homo sapiens, UniProt Q5XXA6); assay: YFP fluorescence quenching assay in FRT cells expressing human ANO1; confirmed by short-circuit current (PC-3 cells IC50 […]); format: cell-based
T2 sequence (Q5XXA6 1-986): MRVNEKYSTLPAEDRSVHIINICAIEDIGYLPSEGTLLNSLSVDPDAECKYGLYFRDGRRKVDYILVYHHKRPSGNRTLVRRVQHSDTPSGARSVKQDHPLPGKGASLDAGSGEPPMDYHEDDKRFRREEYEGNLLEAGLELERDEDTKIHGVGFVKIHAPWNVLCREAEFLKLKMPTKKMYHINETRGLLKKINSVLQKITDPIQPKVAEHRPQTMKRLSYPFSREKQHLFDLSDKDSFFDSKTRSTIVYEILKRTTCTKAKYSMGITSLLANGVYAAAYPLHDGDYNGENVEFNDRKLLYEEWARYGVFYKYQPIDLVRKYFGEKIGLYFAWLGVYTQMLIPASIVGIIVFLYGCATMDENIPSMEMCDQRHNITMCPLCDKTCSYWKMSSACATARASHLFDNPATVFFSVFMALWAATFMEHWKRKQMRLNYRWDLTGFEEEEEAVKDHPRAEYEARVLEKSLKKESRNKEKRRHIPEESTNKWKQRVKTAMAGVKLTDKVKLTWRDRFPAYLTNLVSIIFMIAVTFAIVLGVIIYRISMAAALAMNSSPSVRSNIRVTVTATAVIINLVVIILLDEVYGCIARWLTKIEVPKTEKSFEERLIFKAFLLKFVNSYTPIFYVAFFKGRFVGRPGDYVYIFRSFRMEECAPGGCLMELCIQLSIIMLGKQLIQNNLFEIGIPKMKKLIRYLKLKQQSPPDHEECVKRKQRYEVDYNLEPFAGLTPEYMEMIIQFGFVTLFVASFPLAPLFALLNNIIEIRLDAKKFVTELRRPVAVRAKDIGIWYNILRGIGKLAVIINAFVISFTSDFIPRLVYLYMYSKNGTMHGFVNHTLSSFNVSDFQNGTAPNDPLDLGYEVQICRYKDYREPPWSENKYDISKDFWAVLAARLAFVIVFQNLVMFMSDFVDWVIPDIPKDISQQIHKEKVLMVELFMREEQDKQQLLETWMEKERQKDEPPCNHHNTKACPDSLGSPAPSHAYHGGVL

**Q.** What does the source list for `C=CC1=C(C)C2=Cc3c(C=C)c(C)c4[n]3[Fe]([Cl])[n]3c(c(C)c(CCC(=O)O)c3=CC3=NC(=C4)C(C)=C3CCC(=O)O)=CC1=N2` [hemin]?
**A.** IC50 (ANO2): 4.09 µM; IC50 [1]: 0.51 µM
